Test results from patent US4165428A, “Indoleacetic acid ester derivatives” (Hisamitsu Pharmaceutical Co., Inc., priority 1976, dated 1979).

How the values were obtained:
[1] = Anti-inflammatory activity for oral route (carrageenin edema of hind paw); assay type: in vivo, male rats of Wistar-strain; conditions: for anti-inflammatory effect for oral route (relative inhibition versus indomethacin): 10mg/kg, percent inhibition divided by that of indomethacin, edema measured after 3 hours
Description: A group of five male rats of Wistar-strain (body weight 100-150 g) were orally given each test compound suspended in 0.5% tragacanth-saline. After one hour 1.0% carrageenin suspended in the water for injection was injected subcutaneously to a hind paw.

[2] = Acute toxicity (lethal dose); assay type: in vivo; conditions: mice, estimated from death 72 hours following administration
Description: Each test compound suspended in 1% tragacanth-saline was administered intraperitoneally or orally to male mice of ddY-strain (body weight 16-24 g). The lethal dose was estimated from the death of animals 72 hours following administration.

[3] = Ulcerogenic activity on rat stomach; assay type: in vivo, Male Wistar rats; conditions: oral, 20 mg/kg, 18 hours after administration; sum of area of erosion and ulcer
Description: Male Wistar rats weighing 200-220 g were fasted for 24 hours. Indomethacin and the test drugs were suspended with 0.5% tragacanth solution, and these suspensions were given the animals orally at each dose of 20 mg/kg. The animals were sacrificed with ether 18 hours after administration. The excised stomachs were filled with 1% formalin solution and the whole were immersed in the 1% formalin solution for fixation. Thereafter, an incision was made parallel to the greater curvature to examine whether or not an erosion or ulcer occurs. The degree of erosion and ulcer was represented by the sum of area (mm^2).

## COc1ccc2c(c1)c(CC(=O)OCc1ccccc1F)c(C)n2C(=O)c1ccc(Cl)cc1
[1]
  anti-inflammatory effect for oral route (relative inhibition versus indomethacin): 0.76
[2]
  acute toxicity for oral route (lethal dose): > 500 mg/kg
[3]
  gastric ulcer index: 0.50 ± 0.30 mm^2

## COc1ccc2c(c1)c(CC(=O)OCc1cccc(F)c1)c(C)n2C(=O)c1ccc(Cl)cc1
[1]
  anti-inflammatory effect for oral route (relative inhibition versus indomethacin): 0.68
[2]
  acute toxicity for oral route (lethal dose): > 500 mg/kg
[3]
  gastric ulcer index: 0.50 ± 0.38 mm^2

## COc1ccc2c(c1)c(CC(=O)OCc1ccc(F)cc1)c(C)n2C(=O)c1ccc(Cl)cc1
[1]
  anti-inflammatory effect for oral route (relative inhibition versus indomethacin): 0.41
[2]
  acute toxicity for oral route (lethal dose): > 500 mg/kg
[3]
  gastric ulcer index: 0.13 ± 0.08 mm^2

## COc1ccc2c(c1)c(CC(=O)OCc1ccccc1C)c(C)n2C(=O)c1ccc(Cl)cc1
[2]
  acute toxicity for oral route (lethal dose): > 500 mg/kg
[3]
  gastric ulcer index: 0.19 ± 0.13 mm^2

## COc1ccc2c(c1)c(CC(=O)OCc1cccc(C)c1)c(C)n2C(=O)c1ccc(Cl)cc1
[2]
  acute toxicity for oral route (lethal dose): 200 to 500 mg/kg
[3]
  gastric ulcer index: 0.13 ± 0.08 mm^2

## COc1ccc2c(c1)c(CC(=O)OCc1ccc(C)cc1)c(C)n2C(=O)c1ccc(Cl)cc1
[1]
  anti-inflammatory effect for oral route (relative inhibition versus indomethacin): 1.00
[2]
  acute toxicity for oral route (lethal dose): 500 mg/kg
[3]
  gastric ulcer index: 0.88 ± 0.39 mm^2

## COc1ccc2c(c1)c(CC(=O)O)c(C)n2C(=O)c1ccc(Cl)cc1 [indomethacin, reference compound]
[1]; 10 mg/kg
  mean percent inhibition of carrageenin edema: 41.1%
[1]
  anti-inflammatory effect for oral route (relative inhibition versus indomethacin): 1.0
[2]
  acute toxicity for oral route (lethal dose): 10 to 20 mg/kg
[3]
  gastric ulcer index: 6.75 ± 1.98 mm^2
